Measured values published in patent US9073854B2, “Aromatic sulfonium salt compound” (ADEKA CORPORATION, priority 2009, dated 2015).

assay: Solubility in polyvinylphenol/tetramethylammonium hydroxide (TMAH) aqueous solution; assay type: physicochemical; conditions: mass ratio of compound to polyvinylphenol of the saturated solution; polyvinylphenol in 3% TMAH aqueous solution
Experimental: In a screw-top tube were put 0.36 g of polyvinylphenol (S-2P from Maruzen Petrochemical Co., Ltd.; Mw: 5800) and 10.00 g of a 3% TMAH aqueous solution and heated to dissolve. A 2.00 g portion of the resulting solution was put in another screw-top tube, and a small amount of each of compound Nos. 1 and 5 and comparative compound No. 1 (intermediate No. 7 obtained in step 1 of Example 1-7) was added thereto and heated. A visual check was made to see whether the compound dissolved. This operation was repeated until saturation. The saturated solution was allowed to stand one day to make sure that no solid precipitated. The mass ratio of each compound to the polyvinylphenol of the saturated solution was taken as a parameter of solubility.

Solubility (%) | SMILES
29 | O=c1c2ccccc2n(Cc2cccc(O)c2)c2ccc([S+](c3ccc(F)cc3)c3ccc(F)cc3)cc12 [Compound No. 5]
70 | Cn1c2ccccc2c(=O)c2cc([S+](c3ccc(O)cc3)c3ccc(O)cc3)ccc21 [Compound No. 1]
< 1 | Cn1c2ccccc2c(=O)c2cc([S+](c3ccc(F)cc3)c3ccc(F)cc3)ccc21 [Comp. Compound No. 1, reference compound]
